According to patent US9957298B2, “Peptides as oxytocin agonists” (Hoffmann-La Roche Inc., priority 2014, dated 2018):
Starred links: 1 amine or outer side, 2 acyl side, 3 side chain; linkers in the order of their positions; H or OH if unused. Positions of bridges follow the written chain, without caps; N, C: chain ends. Non-standard residues stand in square brackets, D forms with d. Residues, ends and D or L forms follow the SMILES beside them. d(αMeL) = CC(C)C[C@@](C)(N)C(=O)O; 2Thi = N[C@@H](Cc1cccs1)C(=O)O; Cha = N[C@@H](CC1CCCCC1)C(=O)O; αMeL = CC(C)C[C@](C)(N)C(=O)O; Chg = N[C@H](C(=O)O)C1CCCCC1; Suc = O=C(CCC(=O)[*:2])[*:1]; NcPrGly = O=C(O)CNC1CC1; Dap = NC[C@H](N)C(=O)O; Sar = CNCC(=O)O

Key:
[1] = molecular target: T1, human Oxytocin (OTR) receptor (Homo sapiens, UniProt P30559); assay: Calcium flux assay (FLIPR), agonist mode, CHO cells expressing human oxytocin receptor; format: cell-based; conditions: for EC50: CHO cells, human OTR, calcium flux FLIPR, read-out: hOT EC50; for hOT efficacy (%) / Emax: maximum response normalized to endogenous full agonist = 100%; for Emax: CHO, read-out: hOT efficacy (%)
T1 construct: expressed in transfected cells
T1 sequence (P30559 1-389): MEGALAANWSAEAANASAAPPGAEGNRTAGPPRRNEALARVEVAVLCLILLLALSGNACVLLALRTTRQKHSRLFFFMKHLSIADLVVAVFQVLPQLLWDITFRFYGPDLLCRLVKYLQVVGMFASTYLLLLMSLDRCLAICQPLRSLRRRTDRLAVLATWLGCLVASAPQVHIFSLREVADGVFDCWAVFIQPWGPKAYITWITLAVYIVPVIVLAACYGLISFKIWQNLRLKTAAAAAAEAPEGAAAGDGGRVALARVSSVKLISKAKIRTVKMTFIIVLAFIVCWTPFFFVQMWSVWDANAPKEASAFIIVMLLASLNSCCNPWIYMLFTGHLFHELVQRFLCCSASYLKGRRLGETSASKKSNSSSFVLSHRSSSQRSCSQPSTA
From the text: (§1) Chines Hamster Ovary (CHO) cells were transfected with expression plasmids encoding either the human V1a, the human Oxytocin (OTR) or the human V2 receptor, the later in combination with the chimeric Gqs5 G protein to redirect the signal to Calcium flux. Stable cells were cloned by limiting dilution to yield monoclonal cell lines expressing either human V1a, human V2+Gqs5 or human OTR receptors and selected based on functional responses detected on a fluorometric imaging plate reader (FLIPR) detecting Calcium flux in the cell after receptor activation. The stable cell lines were grown in F-12 K Nutrient Mixture (Kaighns Modification), containing 10% foetal bovine serum (FBS), 1% penicillin-streptomycin, 1% L-[…], 200 ug/ml Geneticin at 37° C. in a 10% CO2 incubator at 95% humidity.
(§2) On the afternoon before the assay, cells were plated at a density of 50,000 cells/well into black 96 well plates with clear bottoms to allow cell inspection and fluorescence measurements from the bottom of each well. The density of cells was sufficient to yield a confluent monolayer the next day. Hanks balanced salt solution, without phenol red, containing 20 mM HEPES (pH 7.3) and 2.5 mM probenecid (assay buffer) was prepared fresh for each experiment. Compound dilutions were made using a Beckman Biomek 2000 laboratory automation workstation, in assay buffer containing 1% DMSO. The dye-loading buffer consisted of a final concentration of 2 μM Fluo-4-AM (dissolved in DMSO and pluronic acid) in assay buffer. The existing culture media was removed from the wells and 100 μl of the dye-loading buffer was added to each well and incubated for approximately 60 min at 37° C. in a 5% CO2 incubator at 95% humidity. Once dye-loaded, the cells were washed thoroughly on an Embla cell washer with the assay buffer to remove any unincorporated dye. Exactly 100 μl assay buffer was left in each well.
(§3) Each 96 well plate containing dye-loaded cells was placed into the FLIPR machine and the laser intensity set to a suitable level to detect low basal fluorescence. To test compounds as agonists, 25 μl diluted compound was added to the plate 10 seconds into the fluorescent measurements and fluorescent response was recorded for 5 minutes. The fluorescence data was normalized to the endogenous full agonist dose-response set at 100% for the maximum response and 0% for the minimum. Each agonist concentration-response curve was constructed using a four parameter logistic equation with Microsoft Excel XLFit as follows: Y=Minimum+((Maximum−Minimum)/(1+10^(LogEC50-X)nH)), where y is the % normalized fluorescence, minimum is the minimum y, maximum is the maximum y, logEC50 is the log10 concentration which produces 50% of the maximum induced fluorescence, x is the log10 of the concentration of the agonist compound and H is the slope of the curve (the Hill Coefficient). The maximum value gives the efficacy of the agonist test compound in percentage. The concentration of agonist that produced a half-maximal response is represented by the EC50 value, the logarithm of which yielded the pEC50 value.

human V1a receptor = molecular target: T2, human V1a receptor (Homo sapiens, UniProt P37288); assay: Calcium flux assay (FLIPR), agonist mode, CHO cells expressing human V1a receptor; format: cell-based; conditions: read-out: hV1a EC50
T2 construct: expressed in transfected cells
T2 sequence (P37288 whole entry): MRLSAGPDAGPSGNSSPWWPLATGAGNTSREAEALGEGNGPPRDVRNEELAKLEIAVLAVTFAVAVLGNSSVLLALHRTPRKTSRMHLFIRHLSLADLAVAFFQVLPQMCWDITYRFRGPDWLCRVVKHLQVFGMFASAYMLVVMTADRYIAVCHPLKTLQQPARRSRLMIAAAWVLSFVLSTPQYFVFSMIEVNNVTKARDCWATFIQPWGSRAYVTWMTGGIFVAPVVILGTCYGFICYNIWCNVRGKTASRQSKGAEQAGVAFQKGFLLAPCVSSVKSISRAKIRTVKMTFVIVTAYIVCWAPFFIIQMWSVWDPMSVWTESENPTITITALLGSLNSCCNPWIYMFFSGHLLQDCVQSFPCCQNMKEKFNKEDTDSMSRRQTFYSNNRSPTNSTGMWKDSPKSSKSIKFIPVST
From the text: as §1, §2, §3

| EC50 [1] | hOT efficacy (%) [1] | Emax [1] | EC50 (human V1a receptor) | Compound |
| --- | --- | --- | --- | --- |
| 4 nM | 111% | – | – | CC[C@H](C)[C@@H]1NC(=O)[C@H](Cc2ccc(O)cc2)NC(=O)CCC(=O)NC[C@@H](C(=O)N(C)CC(=O)N[C@@H](Cc2cnc[nH]2)C(=O)NCC(N)=O)NC(=O)[C@H](CC(N)=O)NC(=O)[C@H](CCC(N)=O)NC1=O [Example 35] (YIQN[Dap][Sar]HG-NH2; linker N-5 via Suc) |
| 2 nM | 111% | – | – | CC[C@H](C)[C@@H]1NC(=O)[C@H](Cc2ccc(O)cc2)NC(=O)CCC(=O)NC[C@@H](C(=O)N(C)CC(=O)N[C@@H](Cc2c[nH]c3ccccc23)C(=O)NCC(N)=O)NC(=O)[C@H](CC(N)=O)NC(=O)[C@H](CCC(N)=O)NC1=O [Example 36] (YIQN[Dap][Sar]WG-NH2; linker N-5 via Suc) |
| 3 nM | 106% | – | – | CC[C@H](C)[C@@H]1NC(=O)[C@H](Cc2ccc(O)cc2)NC(=O)CCC(=O)NC[C@@H](C(=O)N(C)CC(=O)N[C@@H](Cc2cccs2)C(=O)NCC(N)=O)NC(=O)[C@H](CC(N)=O)NC(=O)[C@H](CCC(N)=O)NC1=O [Example 34] (YIQN[Dap][Sar][2Thi]G-NH2; linker N-5 via Suc) |
| 5 nM | 112% | – | – | CC[C@H](C)[C@@H]1NC(=O)[C@H](Cc2ccc(O)cc2)NC(=O)CCC(=O)NC[C@@H](C(=O)N(C)CC(=O)N[C@@H](CCC(N)=O)C(=O)NCC(N)=O)NC(=O)[C@H](CC(N)=O)NC(=O)[C@H](CCC(N)=O)NC1=O [Example 32] (YIQN[Dap][Sar]QG-NH2; linker N-5 via Suc) |
| 3 nM | 123% | – | – | CC[C@H](C)[C@@H]1NC(=O)[C@H](Cc2ccc(O)cc2)NC(=O)CCC(=O)NC[C@@H](C(=O)N(C)CC(=O)N[C@@](C)(CC(C)C)C(=O)NCC(N)=O)NC(=O)[C@H](CC(N)=O)NC(=O)[C@H](CCC(N)=O)NC1=O [Example 23] (YIQN[Dap][Sar][αMeL]G-NH2; linker N-5 via Suc) |
| 1.6 nM | – | 130% | – | CC[C@H](C)[C@@H]1NC(=O)[C@H](Cc2ccc(O)cc2)NC(=O)CCC(=O)NC[C@@H](C(=O)N2CCC[C@H]2C(=O)N[C@H](C(=O)NCC(N)=O)C(C)C)NC(=O)[C@H](CC(N)=O)NC(=O)[C@H](CCC(N)=O)NC1=O [Example 12] (YIQN[Dap]PVG-NH2; linker N-5 via Suc) |
| 1 nM | 132% | – | – | CC[C@H](C)[C@@H]1NC(=O)[C@H](Cc2ccc(O)cc2)NC(=O)CCC(=O)NC[C@@H](C(=O)N2CCC[C@H]2C(=O)N[C@H](C(=O)NCC(N)=O)[C@@H](C)CC)NC(=O)[C@H](CC(N)=O)NC(=O)[C@H](CCC(N)=O)NC1=O [Example 9] (YIQN[Dap]PIG-NH2; linker N-5 via Suc) |
| 3 nM | 101% | – | – | CC[C@H](C)[C@@H]1NC(=O)[C@H](Cc2ccc(O)cc2)NC(=O)CCC(=O)NC[C@@H](C(=O)N2CCC[C@H]2C(=O)N[C@](C)(CC(C)C)C(=O)NCC(N)=O)NC(=O)[C@H](CC(N)=O)NC(=O)[C@H](CCC(N)=O)NC1=O [Example 7] (YIQN[Dap]P[d(αMeL)]G-NH2; linker N-5 via Suc) |

The remaining lines, values behind:

| Compound | EC50 [1] | hOT efficacy (%) [1] | Emax [1] | EC50 (human V1a receptor) |
| --- | --- | --- | --- | --- |
| CC[C@H](C)[C@@H]1NC(=O)[C@H](Cc2ccc(O)cc2)NC(=O)CCC(=O)NC[C@@H](C(=O)N(CC(=O)N[C@](C)(CC(C)C)C(=O)NCC(N)=O)C2CC2)NC(=O)[C@H](CC(N)=O)NC(=O)[C@H](CCC(N)=O)NC1=O [Example 39] (YIQN[Dap][NcPrGly][d(αMeL)]G-NH2; linker N-5 via Suc) | 1.3 nM | – | 108% | – |
| CC[C@H](C)[C@@H]1NC(=O)[C@H](Cc2ccc(O)cc2)NC(=O)CCC(=O)NC[C@@H](C(=O)N(CC(=O)N[C@H](C(=O)NCC(N)=O)C2CCCCC2)C2CC2)NC(=O)[C@H](CC(N)=O)NC(=O)[C@H](CCC(N)=O)NC1=O [Example 43] (YIQN[Dap][NcPrGly][Chg]G-NH2; linker N-5 via Suc) | 0.26 nM | – | 110% | – |
| CC[C@H](C)[C@@H]1NC(=O)[C@H](Cc2ccc(O)cc2)NC(=O)CCC(=O)NC[C@@H](C(=O)N(C)CC(=O)N[C@@H](Cc2ccccc2)C(=O)NCC(N)=O)NC(=O)[C@H](CC(N)=O)NC(=O)[C@H](CCC(N)=O)NC1=O [Example 33] (YIQN[Dap][Sar]FG-NH2; linker N-5 via Suc) | 3 nM | 111% | – | – |
| CC[C@H](C)[C@@H]1NC(=O)[C@H](Cc2ccc(O)cc2)NC(=O)[C@@H](N)CC(=O)NC[C@@H](C(=O)N(C)CC(=O)N[C@@H](CC(C)C)C(=O)NCC(N)=O)NC(=O)[C@H](CC(N)=O)NC(=O)[C@H](CCC(N)=O)NC1=O [Example 2] (H-DYIQN[Dap][Sar]LG-NH2; lactam 1-6) | 4 nM | 144% | – | > 27000 nM |
| CC[C@H](C)[C@@H]1NC(=O)[C@H](Cc2ccc(O)cc2)NC(=O)CCC(=O)NC[C@@H](C(=O)N2CCC[C@H]2C(=O)N[C@@H](Cc2ccccc2)C(=O)NCC(N)=O)NC(=O)[C@H](CC(N)=O)NC(=O)[C@H](CCC(N)=O)NC1=O [Example 14] (YIQN[Dap]PFG-NH2; linker N-5 via Suc) | 6 nM | 122% | – | – |
| CC[C@H](C)[C@@H]1NC(=O)[C@H](Cc2ccc(O)cc2)NC(=O)CCC(=O)NC[C@@H](C(=O)N2CCC[C@H]2C(=O)N[C@@H](CCC(N)=O)C(=O)NCC(N)=O)NC(=O)[C@H](CC(N)=O)NC(=O)[C@H](CCC(N)=O)NC1=O [Example 13] (YIQN[Dap]PQG-NH2; linker N-5 via Suc) | 8 nM | 128% | – | – |
| CC[C@H](C)[C@@H]1NC(=O)[C@H](Cc2ccc(O)cc2)NC(=O)CCC(=O)NC[C@@H](C(=O)N(C)CC(=O)N[C@@H](CO)C(=O)NCC(N)=O)NC(=O)[C@H](CC(N)=O)NC(=O)[C@H](CCC(N)=O)NC1=O [Example 30] (YIQN[Dap][Sar]SG-NH2; linker N-5 via Suc) | 2 nM | 109% | – | – |
| CC[C@H](C)[C@@H]1NC(=O)[C@H](Cc2ccc(O)cc2)NC(=O)CCC(=O)NC[C@@H](C(=O)N2CCC[C@H]2C(=O)N[C@@H](Cc2c[nH]c3ccccc23)C(=O)NCC(N)=O)NC(=O)[C@H](CC(N)=O)NC(=O)[C@H](CCC(N)=O)NC1=O [Example 16] (YIQN[Dap]PWG-NH2; linker N-5 via Suc) | 4 nM | 100% | – | – |
| CC[C@H](C)[C@@H]1NC(=O)[C@H](Cc2ccc(O)cc2)NC(=O)CCC(=O)NC[C@@H](C(=O)N2CCC[C@H]2C(=O)N[C@@H](CC2CCCCC2)C(=O)NCC(N)=O)NC(=O)[C@H](CC(N)=O)NC(=O)[C@H](CCC(N)=O)NC1=O [Example 18] (YIQN[Dap]P[Cha]G-NH2; linker N-5 via Suc) | 2 nM | 130% | – | – |
| CC[C@H](C)[C@@H]1NC(=O)[C@H](Cc2ccc(O)cc2)NC(=O)CCC(=O)NC[C@@H](C(=O)N2CCC[C@H]2C(=O)N[C@@H](CCSC)C(=O)NCC(N)=O)NC(=O)[C@H](CC(N)=O)NC(=O)[C@H](CCC(N)=O)NC1=O [Example 8] (YIQN[Dap]PMG-NH2; linker N-5 via Suc) | 1 nM | 134% | – | – |
